In ChEMBL document CHEMBL3870312, “Rational modification of donepezil as multifunctional acetylcholinesterase inhibitors for the treatment of Alzheimer's disease” (Eur J Med Chem, 2016):

Target: Cholinesterase (Equus caballus, UniProt P81908)
Test: not given
Settings: not given

Cholinesterase (Equus caballus, UniProt P81908), sequence (P81908 whole entry): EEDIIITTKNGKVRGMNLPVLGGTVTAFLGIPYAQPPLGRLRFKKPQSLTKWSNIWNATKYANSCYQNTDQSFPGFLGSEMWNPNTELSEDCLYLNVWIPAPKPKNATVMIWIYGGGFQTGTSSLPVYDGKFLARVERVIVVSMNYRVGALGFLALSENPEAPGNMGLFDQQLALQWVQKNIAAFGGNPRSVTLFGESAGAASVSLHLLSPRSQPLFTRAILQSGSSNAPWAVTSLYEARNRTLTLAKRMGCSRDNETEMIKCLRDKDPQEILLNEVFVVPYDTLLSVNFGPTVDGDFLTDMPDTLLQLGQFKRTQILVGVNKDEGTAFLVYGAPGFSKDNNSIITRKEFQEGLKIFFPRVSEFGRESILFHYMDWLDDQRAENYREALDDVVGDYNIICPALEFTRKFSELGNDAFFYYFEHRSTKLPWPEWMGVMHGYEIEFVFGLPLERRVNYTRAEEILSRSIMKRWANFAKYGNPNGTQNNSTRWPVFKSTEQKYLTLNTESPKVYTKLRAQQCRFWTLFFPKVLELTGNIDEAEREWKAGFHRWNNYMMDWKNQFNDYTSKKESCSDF

Compared with `COc1cc2c(cc1OC)C(=O)C(CC1CCN(Cc3ccccn3)CC1)C2` (centres undefined), `COc1cc2c(cc1OC)C(=O)C(CC1CCN(Cc3cccc(Cl)n3)CC1)C2` (centres undefined) is 4-fold higher in IC50: 7.83 µM for the first, 31.6 µM for the second. The first is the more potent here.

Compared with `COc1cc2c(cc1OC)C(=O)C(CC1CCN(Cc3ccccc3C(F)(F)F)CC1)C2` (centres undefined), `COc1cc2c(cc1OC)C(=O)C(CC1CCN(Cc3ccccc3Cl)CC1)C2` (centres undefined) is 9.9-fold lower in IC50: 31.7 µM for the first, 3.2 µM for the second. The second is the more potent here.

Compared with `COc1cc2c(cc1OC)C(=O)C(CC1CCN(Cc3ccc([N+](=O)[O-])cc3)CC1)C2` (centres undefined), `COc1cc2c(cc1OC)C(=O)C(CC1CCN(Cc3ccc(Cl)cc3)CC1)C2` (centres undefined) is 7.3-fold higher in IC50: 12.2 µM for the first, 89.4 µM for the second. The first is the more potent here.

Compared with `COc1cc2c(cc1OC)C(=O)C(CC1CCN(Cc3cccc(Cl)c3)CC1)C2` (centres undefined), `COc1cc2c(cc1OC)C(=O)C(CC1CCN(Cc3cccc(F)c3)CC1)C2` (centres undefined) is 26-fold lower in IC50: 68.9 µM for the first, 2.66 µM for the second.

Going from `COc1cc2c(cc1OC)C(=O)C(CC1CCN(Cc3ccc4ccccc4n3)CC1)C2` (centres undefined) to `COc1cc2c(cc1OC)C(=O)C(CC1CCN(Cc3cccc(F)n3)CC1)C2` (centres undefined), the IC50 rises from 9.68 µM to 21.1 µM (2.2-fold).

Compared with `COc1cc2c(cc1OC)C(=O)C(CC1CCN(Cc3cccc(C(F)(F)F)c3)CC1)C2` (centres undefined), `COc1cc2c(cc1OC)C(=O)C(CC1CCN(Cc3ccccc3[N+](=O)[O-])CC1)C2` (centres undefined) is 1.7-fold higher in IC50: 18.2 µM for the first, 31.1 µM for the second. The first is the more potent here.

First: COc1cc2c(cc1OC)C(=O)C(CC1CCN(Cc3ncc(C)cc3C)CC1)C2 (centres undefined)
Second: COC(=O)c1cccc(CN2CCC(CC3Cc4cc(OC)c(OC)cc4C3=O)CC2)n1 (centres undefined)
The IC50 of the first is 4.7-fold lower: 6.31 µM for the first, 29.5 µM for the second.

Target: Acetylcholinesterase (Electrophorus electricus, UniProt O42275)
Test: not given
Settings: not given

Acetylcholinesterase (Electrophorus electricus, UniProt O42275), sequence (O42275 whole entry): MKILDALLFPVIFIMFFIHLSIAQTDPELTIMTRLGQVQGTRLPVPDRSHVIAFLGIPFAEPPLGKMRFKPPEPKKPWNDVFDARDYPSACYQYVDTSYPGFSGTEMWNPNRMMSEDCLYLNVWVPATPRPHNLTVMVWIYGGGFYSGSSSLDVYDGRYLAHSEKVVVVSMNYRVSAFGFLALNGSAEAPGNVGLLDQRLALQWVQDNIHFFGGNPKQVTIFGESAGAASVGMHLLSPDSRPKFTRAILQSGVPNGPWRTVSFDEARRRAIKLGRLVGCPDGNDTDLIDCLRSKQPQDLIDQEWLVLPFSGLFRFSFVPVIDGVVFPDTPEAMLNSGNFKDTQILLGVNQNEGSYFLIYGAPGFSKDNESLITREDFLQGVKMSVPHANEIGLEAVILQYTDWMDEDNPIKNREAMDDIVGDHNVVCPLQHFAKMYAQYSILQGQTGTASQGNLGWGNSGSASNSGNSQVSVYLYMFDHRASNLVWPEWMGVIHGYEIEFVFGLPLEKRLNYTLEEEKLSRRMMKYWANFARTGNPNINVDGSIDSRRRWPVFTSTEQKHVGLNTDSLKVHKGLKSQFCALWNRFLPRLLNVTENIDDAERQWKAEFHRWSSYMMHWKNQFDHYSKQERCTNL

First: COc1cc2c(cc1OC)C(=O)C(CC1CCN(Cc3ccccn3)CC1)C2 (centres undefined)
Second: COc1cc2c(cc1OC)C(=O)C(CC1CCN(Cc3cccc(Cl)n3)CC1)C2 (centres undefined)
The IC50 of the first is 2.7-fold higher: 1.09 µM for the first, 0.409 µM for the second. The second is the more potent here.

Going from `COc1cc2c(cc1OC)C(=O)C(CC1CCN(Cc3ccccc3C(F)(F)F)CC1)C2` (centres undefined) to `COc1cc2c(cc1OC)C(=O)C(CC1CCN(Cc3ccccc3Cl)CC1)C2` (centres undefined), the IC50 falls from 0.7 µM to 0.06 µM (12-fold).

`COc1cc2c(cc1OC)C(=O)C(CC1CCN(Cc3ccc([N+](=O)[O-])cc3)CC1)C2` (centres undefined) and `COc1cc2c(cc1OC)C(=O)C(CC1CCN(Cc3ccc(Cl)cc3)CC1)C2` (centres undefined) are within 1.5-fold of each other in IC50: 4.02 µM for the first, 4.8 µM for the second.

Going from `COc1cc2c(cc1OC)C(=O)C(CC1CCN(Cc3cccc(Cl)c3)CC1)C2` (centres undefined) to `COc1cc2c(cc1OC)C(=O)C(CC1CCN(Cc3cccc(F)c3)CC1)C2` (centres undefined), the IC50 falls from 0.237 µM to 0.068 µM (3.5-fold). The second is the more potent here.

Compared with `COc1cc2c(cc1OC)C(=O)C(CC1CCN(Cc3ccc4ccccc4n3)CC1)C2` (centres undefined), `COc1cc2c(cc1OC)C(=O)C(CC1CCN(Cc3cccc(F)n3)CC1)C2` (centres undefined) is 35-fold lower in IC50: 8.71 µM for the first, 0.246 µM for the second.

Going from `COc1cc2c(cc1OC)C(=O)C(CC1CCN(Cc3cccc(C(F)(F)F)c3)CC1)C2` (centres undefined) to `COc1cc2c(cc1OC)C(=O)C(CC1CCN(Cc3ccccc3[N+](=O)[O-])CC1)C2` (centres undefined), the IC50 falls from 0.197 µM to 0.106 µM (1.9-fold). The second is the more potent here.

Going from `COc1cc2c(cc1OC)C(=O)C(CC1CCN(Cc3ncc(C)cc3C)CC1)C2` (centres undefined) to `COC(=O)c1cccc(CN2CCC(CC3Cc4cc(OC)c(OC)cc4C3=O)CC2)n1` (centres undefined), the IC50 falls from 1.01 µM to 0.511 µM (2-fold). The second is the more potent here.

Target: Acetylcholinesterase (Homo sapiens, UniProt P22303)
Test: not given
Settings: not given

Acetylcholinesterase (Homo sapiens, UniProt P22303), sequence (P22303 whole entry): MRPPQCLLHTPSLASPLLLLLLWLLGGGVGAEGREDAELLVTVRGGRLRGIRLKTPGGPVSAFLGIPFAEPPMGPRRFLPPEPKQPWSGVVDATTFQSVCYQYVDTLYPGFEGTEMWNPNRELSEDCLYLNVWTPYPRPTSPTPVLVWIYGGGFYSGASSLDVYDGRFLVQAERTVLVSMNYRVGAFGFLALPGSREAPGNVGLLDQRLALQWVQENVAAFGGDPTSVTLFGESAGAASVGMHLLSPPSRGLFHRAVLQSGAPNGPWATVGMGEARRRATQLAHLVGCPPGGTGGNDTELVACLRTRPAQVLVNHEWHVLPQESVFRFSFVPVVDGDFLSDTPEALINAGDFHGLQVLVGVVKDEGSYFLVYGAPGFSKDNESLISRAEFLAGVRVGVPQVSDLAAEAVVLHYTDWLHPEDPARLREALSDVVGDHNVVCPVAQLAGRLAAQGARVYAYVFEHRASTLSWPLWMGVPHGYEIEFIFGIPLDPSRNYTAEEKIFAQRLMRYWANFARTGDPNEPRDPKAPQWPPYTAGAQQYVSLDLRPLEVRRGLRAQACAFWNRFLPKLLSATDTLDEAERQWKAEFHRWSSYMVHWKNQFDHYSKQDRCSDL

Compared with `COc1cc2c(cc1OC)C(=O)C(CC1CCN(Cc3ccccn3)CC1)C2` (centres undefined), `COc1cc2c(cc1OC)C(=O)C(CC1CCN(Cc3cccc(Cl)n3)CC1)C2` (centres undefined) is 6-fold higher in IC50: 0.147 µM for the first, 0.883 µM for the second.

Compared with `COc1cc2c(cc1OC)C(=O)C(CC1CCN(Cc3ccccc3C(F)(F)F)CC1)C2` (centres undefined), `COc1cc2c(cc1OC)C(=O)C(CC1CCN(Cc3ccccc3Cl)CC1)C2` (centres undefined) is 50-fold lower in IC50: 4.87 µM for the first, 0.097 µM for the second. The second is the more potent here.

`COc1cc2c(cc1OC)C(=O)C(CC1CCN(Cc3ccc([N+](=O)[O-])cc3)CC1)C2` (centres undefined) and `COc1cc2c(cc1OC)C(=O)C(CC1CCN(Cc3ccc(Cl)cc3)CC1)C2` (centres undefined) are within 1.5-fold of each other in IC50: 1.91 µM for the first, 2.86 µM for the second.

Going from `COc1cc2c(cc1OC)C(=O)C(CC1CCN(Cc3cccc(Cl)c3)CC1)C2` (centres undefined) to `COc1cc2c(cc1OC)C(=O)C(CC1CCN(Cc3cccc(F)c3)CC1)C2` (centres undefined), the IC50 falls from 0.114 µM to 0.054 µM (2.1-fold).

First: COc1cc2c(cc1OC)C(=O)C(CC1CCN(Cc3ccc4ccccc4n3)CC1)C2 (centres undefined)
Second: COc1cc2c(cc1OC)C(=O)C(CC1CCN(Cc3cccc(F)n3)CC1)C2 (centres undefined)
The IC50 of the first is 43-fold higher: 8.43 µM for the first, 0.195 µM for the second. The second is the more potent here.

`COc1cc2c(cc1OC)C(=O)C(CC1CCN(Cc3cccc(C(F)(F)F)c3)CC1)C2` (centres undefined) and `COc1cc2c(cc1OC)C(=O)C(CC1CCN(Cc3ccccc3[N+](=O)[O-])CC1)C2` (centres undefined) are within 1.5-fold of each other in IC50: 2.12 µM for the first, 3.11 µM for the second.

First: COc1cc2c(cc1OC)C(=O)C(CC1CCN(Cc3ncc(C)cc3C)CC1)C2 (centres undefined)
Second: COC(=O)c1cccc(CN2CCC(CC3Cc4cc(OC)c(OC)cc4C3=O)CC2)n1 (centres undefined)
The IC50 of the first is 7.1-fold lower: 0.814 µM for the first, 5.78 µM for the second. The first is the more potent here.

Target: Cholinesterase (Homo sapiens, UniProt P06276)
Test: not given
Settings: not given

Cholinesterase (Homo sapiens, UniProt P06276), sequence (P06276 whole entry): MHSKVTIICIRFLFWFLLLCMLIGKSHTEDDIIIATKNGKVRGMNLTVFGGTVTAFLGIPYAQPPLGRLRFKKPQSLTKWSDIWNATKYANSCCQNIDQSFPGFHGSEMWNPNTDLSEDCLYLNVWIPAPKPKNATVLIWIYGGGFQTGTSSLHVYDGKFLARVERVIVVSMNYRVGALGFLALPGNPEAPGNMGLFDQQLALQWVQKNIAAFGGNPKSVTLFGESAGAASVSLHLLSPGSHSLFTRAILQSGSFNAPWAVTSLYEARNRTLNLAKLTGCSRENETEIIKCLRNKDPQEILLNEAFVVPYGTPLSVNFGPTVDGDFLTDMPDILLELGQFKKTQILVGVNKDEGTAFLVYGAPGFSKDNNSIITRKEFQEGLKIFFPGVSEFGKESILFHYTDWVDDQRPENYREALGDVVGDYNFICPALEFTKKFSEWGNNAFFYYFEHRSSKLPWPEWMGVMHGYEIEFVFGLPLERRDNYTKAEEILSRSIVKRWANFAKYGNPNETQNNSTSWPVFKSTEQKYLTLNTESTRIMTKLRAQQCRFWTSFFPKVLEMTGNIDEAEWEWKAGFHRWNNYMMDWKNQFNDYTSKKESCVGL

First: COc1cc2c(cc1OC)C(=O)C(CC1CCN(Cc3ccccn3)CC1)C2 (centres undefined)
Second: COc1cc2c(cc1OC)C(=O)C(CC1CCN(Cc3cccc(Cl)n3)CC1)C2 (centres undefined)
The IC50 of the first is 2-fold lower: 38.6 µM for the first, 78.7 µM for the second. The first is the more potent here.

Compared with `COc1cc2c(cc1OC)C(=O)C(CC1CCN(Cc3ccccc3C(F)(F)F)CC1)C2` (centres undefined), `COc1cc2c(cc1OC)C(=O)C(CC1CCN(Cc3ccccc3Cl)CC1)C2` (centres undefined) is 2.2-fold lower in IC50: 41.4 µM for the first, 18.8 µM for the second.

`COc1cc2c(cc1OC)C(=O)C(CC1CCN(Cc3ccc([N+](=O)[O-])cc3)CC1)C2` (centres undefined) and `COc1cc2c(cc1OC)C(=O)C(CC1CCN(Cc3ccc(Cl)cc3)CC1)C2` (centres undefined) are within 1.5-fold of each other in IC50: 85.8 µM for the first, 81.6 µM for the second.

Compared with `COc1cc2c(cc1OC)C(=O)C(CC1CCN(Cc3cccc(Cl)c3)CC1)C2` (centres undefined), `COc1cc2c(cc1OC)C(=O)C(CC1CCN(Cc3cccc(F)c3)CC1)C2` (centres undefined) is 1.9-fold lower in IC50: 50.2 µM for the first, 26.7 µM for the second. The second is the more potent here.

First: COc1cc2c(cc1OC)C(=O)C(CC1CCN(Cc3ccc4ccccc4n3)CC1)C2 (centres undefined)
Second: COc1cc2c(cc1OC)C(=O)C(CC1CCN(Cc3cccc(F)n3)CC1)C2 (centres undefined)
The IC50 of the first is 6.1-fold lower: 6.35 µM for the first, 38.9 µM for the second.

`COc1cc2c(cc1OC)C(=O)C(CC1CCN(Cc3cccc(C(F)(F)F)c3)CC1)C2` (centres undefined) and `COc1cc2c(cc1OC)C(=O)C(CC1CCN(Cc3ccccc3[N+](=O)[O-])CC1)C2` (centres undefined) are within 1.5-fold of each other in IC50: 76.9 µM for the first, 91.2 µM for the second.

Going from `COc1cc2c(cc1OC)C(=O)C(CC1CCN(Cc3ncc(C)cc3C)CC1)C2` (centres undefined) to `COC(=O)c1cccc(CN2CCC(CC3Cc4cc(OC)c(OC)cc4C3=O)CC2)n1` (centres undefined), the IC50 rises from 8.55 µM to 25.4 µM (3-fold). The first is the more potent here.

Target: Amyloid-beta precursor protein (Homo sapiens) (UniProt P05067)
Test: not given
Settings: at 20 µM

Amyloid-beta precursor protein (Homo sapiens), sequence (P05067 whole entry): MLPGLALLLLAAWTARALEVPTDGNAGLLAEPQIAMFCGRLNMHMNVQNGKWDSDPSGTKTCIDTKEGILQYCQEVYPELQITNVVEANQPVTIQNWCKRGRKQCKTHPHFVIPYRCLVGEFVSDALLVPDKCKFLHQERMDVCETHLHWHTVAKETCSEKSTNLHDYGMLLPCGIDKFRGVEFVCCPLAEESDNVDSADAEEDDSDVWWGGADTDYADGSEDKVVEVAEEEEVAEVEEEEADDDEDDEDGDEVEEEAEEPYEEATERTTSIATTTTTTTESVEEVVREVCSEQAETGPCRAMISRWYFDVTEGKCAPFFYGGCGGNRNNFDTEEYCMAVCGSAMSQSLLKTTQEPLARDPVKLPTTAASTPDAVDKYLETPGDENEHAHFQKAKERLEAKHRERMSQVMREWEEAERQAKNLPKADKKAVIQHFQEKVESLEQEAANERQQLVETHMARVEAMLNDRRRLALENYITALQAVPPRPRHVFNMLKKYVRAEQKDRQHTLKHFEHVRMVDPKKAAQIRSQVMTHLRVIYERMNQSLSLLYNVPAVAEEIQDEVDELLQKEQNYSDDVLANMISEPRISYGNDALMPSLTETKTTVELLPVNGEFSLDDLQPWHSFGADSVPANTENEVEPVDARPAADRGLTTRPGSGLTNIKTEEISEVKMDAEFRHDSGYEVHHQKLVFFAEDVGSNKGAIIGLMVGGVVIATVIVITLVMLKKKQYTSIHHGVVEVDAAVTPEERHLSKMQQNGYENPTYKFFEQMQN

`COc1cc2c(cc1OC)C(=O)C(CC1CCN(Cc3ccccc3)CC1)C2` (centres undefined) and `COc1cc2c(cc1OC)C(=O)C(CC1CCN(Cc3cccc(F)c3)CC1)C2` (centres undefined) cannot be ordered by inhibition: > 10% for the first, > 10% for the second.

System: not listed separately
Test: in vitro
Settings: PAMPA
Description: Effective permeability of the compound after 18 hrs by PAMPA

With `COc1cc2c(cc1OC)C(=O)C(CC1CCN(Cc3cccc(F)c3)CC1)C2` (centres undefined) the Papp at 18 h was 11.5 ×10⁻⁶ cm/s.
